# Structures can show the parent of a compound that is named as a salt. Where two headings read alike, the source gives them in different places. Marks after values point to notes of the source that are not given here.
# Assays:
# [1] = test system: Chinese hamster lung (CHL/IU) cells; experiment: Effect of inducing chromosomal aberration; format: cell-based; conditions: for Percentile induction of structural aberration (TA %): 24 hours
# Experimental: From each sample solution, samples to be tested having a concentration of 1, 3, 10, 30, 50, and 100 μg/mL (as reduced to free form) were prepared. As a negative control, 0.1 mol/L NaOH was employed.
# Chinese hamster lung (CHL/IU) cells in logarithmic growth phase were employed. The cells were treated in a culture solution containing each sample to be tested for 24 hours. Subsequently, a chromosome specimen was prepared from the thus-treated cells. The culture solution employed was an Eagle's MEM (product of NISSUI PHARMACEUTICAL CO., LTD.) medium containing 15% fetal bovine serum (15% FBS-MEM).
# In each sample concentration, 100 cells during metaphase were observed, to thereby record types and numbers of the chromosomal aberration.
# S. marcescens 10100 = experiment: Antibacterial activity (MIC), standard method of the Japan Society of Chemotherapy; format: cell-based
# Experimental: (§1) The antimicrobial activities of the compounds of the present invention were determined according to a standard method designated by the Japan Society of Chemotherapy. The results are expressed by MIC (μg/mL) (Table 1). In Table 1, S. aureus 870307 and S. pneumonia J24 are quinolone-resistant bacteria.
# P. aeruginosa 32121 = experiment: as above; format: cell-based
# Experimental: as §1
# S. aureus FDA 209P = experiment: as above; format: cell-based
# Experimental: as §1
# S. pneumoniae J24 = experiment: as above; format: cell-based
# Experimental: as §1
# S. maltophilia IID 1275 = experiment: as above; format: cell-based
# Experimental: as §1
# S. aureus 870307 = experiment: as above; format: cell-based
# Experimental: as §1
# E. coli NIHJ = experiment: as above; format: cell-based
# Experimental: as §1
# S. epidermidis 56500 = experiment: as above; format: cell-based
# Experimental: as §1
# S. flexneri 2A 5503 = experiment: as above; format: cell-based
# Experimental: as §1
# S. pyogenes G-36 = experiment: as above; format: cell-based
# Experimental: as §1
# K. pneumoniae TYPE I = experiment: as above; format: cell-based
# Experimental: as §1
# P. Vulgalis 08601 = experiment: as above; format: cell-based
# Experimental: as §1
# E. faevcalis ATCC 19433 = experiment: as above; format: cell-based
# Experimental: as §1
# P. aeruginosa 32104 = experiment: as above; format: cell-based
# Experimental: as §1
# [2] = S. pneumoniae J24, quinolone-resistant
# [3] = S. aureus 870307, quinolone-resistant
structure (smiles),measurement,setting,value
"CCC[C@H]1CN(c2c(F)cc3c(=O)c(C(=O)O)cn([C@@H]4C[C@@H]4F)c3c2OC)C[C@H]1N [Compound No. 4, 7-[(3S,4S)-3-Amino-4-propylpyrrolidin-1-yl]-6-fluoro-1-[(1R,2S)-2-fluorocyclopropyl]-8-methoxy-1,4-dihydro-4-oxoquinoline-3-carboxylic acid]",melting point,,79 to 83 °C
"CC[C@H]1CN(c2c(F)cc3c(=O)c(C(=O)O)cn(C4CC4)c3c2C)C[C@H]1N [Comparative Compound D, 7-[(3S,4S)-3-Amino-4-ethylpyrrolidine-1-yl]-1-cyclopropyl-6-fluoro-8-methyl-1,4-dihydro-4-oxoquinoline-3-carboxylic acid, reference compound]",Percentile induction of structural aberration (TA %),"[1]; 1 μg/mL, CHL/IU cells",4%
same,Percentile induction of structural aberration (TA %),"[1]; 3 μg/mL, CHL/IU cells",0%
same,Percentile induction of structural aberration (TA %),"[1]; 10 μg/mL, CHL/IU cells",3%
same,Percentile induction of structural aberration (TA %),"[1]; 30 μg/mL, CHL/IU cells",63* %
same,Percentile induction of structural aberration (TA %),"[1]; 50 μg/mL, CHL/IU cells",98* %
same,Percentile induction of structural aberration (TA %),"[1]; 100 μg/mL, CHL/IU cells",100* %
"C[C@H]1COc2c(N3CCN(C)CC3)c(F)cc3c(=O)c(C(=O)O)cn1c23 [LVFX, reference compound]",MIC,S. marcescens 10100; S. marcescens 10100,0.1 µg/mL
same,MIC,P. aeruginosa 32121; P. aeruginosa 32121,0.1 µg/mL
same,MIC,S. aureus FDA 209P; S. aureus FDA 209P,0.2 µg/mL
same,MIC,S. pneumoniae J24; [2],0.78 µg/mL
same,MIC,S. maltophilia IID 1275; S. maltophilia IID 1275,0.39 µg/mL
same,MIC,S. aureus 870307; [3],>6.25 µg/mL
same,MIC,E. coli NIHJ; E. coli NIHJ,0.012 µg/mL
same,MIC,S. epidermidis 56500; S. epidermidis 56500,0.39 µg/mL
same,MIC,S. flexneri 2A 5503,0.025 µg/mL
same,MIC,S. pyogenes G-36; S. pyogenes G-36,0.78 µg/mL
same,MIC,K. pneumoniae TYPE I; K. pneumoniae TYPE I,0.1 µg/mL
same,MIC,P. Vulgalis 08601; P. Vulgalis 08601,0.012 µg/mL
same,MIC,E. faevcalis ATCC 19433; E. faevcalis ATCC 19433,0.78 µg/mL
same,MIC,P. aeruginosa 32104; P. aeruginosa 32104,0.2 µg/mL
"CC[C@H]1CN(c2c(F)cc3c(=O)c(C(=O)O)cn4c3c2OC[C@@H]4C)C[C@H]1NC [Compound No. 13, (3S)-10-[(3S,4S)-3-Ethyl-4-methylaminopyrrolidin-1-yl]-9-fluoro-2,3-dihydro-3-methyl-7-oxo-7H-pyrido[1,2,3-de][1,4]benzoxazine-6-carboxylic acid]",melting point,,211 to 213 °C
"COc1c(N2C[C@@H]3CCCN[C@@H]3C2)c(F)cc2c(=O)c(C(=O)O)cn(C3CC3)c12 [MFLX, reference compound]",MIC,S. marcescens 10100; S. marcescens 10100,0.1 µg/mL
same,MIC,P. aeruginosa 32121; P. aeruginosa 32121,0.2 µg/mL
same,MIC,S. aureus FDA 209P; S. aureus FDA 209P,0.025 µg/mL
same,MIC,S. pneumoniae J24; [2],0.025 µg/mL
same,MIC,S. maltophilia IID 1275; S. maltophilia IID 1275,0.1 µg/mL
same,MIC,S. aureus 870307; [3],0.78 µg/mL
same,MIC,E. coli NIHJ; E. coli NIHJ,0.006 µg/mL
same,MIC,S. epidermidis 56500; S. epidermidis 56500,0.1 µg/mL
same,MIC,S. flexneri 2A 5503,0.012 µg/mL
same,MIC,S. pyogenes G-36; S. pyogenes G-36,0.2 µg/mL
same,MIC,K. pneumoniae TYPE I; K. pneumoniae TYPE I,0.05 µg/mL
same,MIC,P. Vulgalis 08601; P. Vulgalis 08601,0.025 µg/mL
same,MIC,E. faevcalis ATCC 19433; E. faevcalis ATCC 19433,0.2 µg/mL
same,MIC,P. aeruginosa 32104; P. aeruginosa 32104,0.39 µg/mL
"O=C(O)c1cn(C2CC2)c2cc(N3CCNCC3)c(F)cc2c1=O [CPFX, reference compound]",MIC,S. marcescens 10100; S. marcescens 10100,0.025 µg/mL
same,MIC,P. aeruginosa 32121; P. aeruginosa 32121,0.025 µg/mL
same,MIC,S. aureus FDA 209P; S. aureus FDA 209P,0.1 µg/mL
same,MIC,S. pneumoniae J24; [2],0.39 µg/mL
same,MIC,S. maltophilia IID 1275; S. maltophilia IID 1275,0.78 µg/mL
same,MIC,S. aureus 870307; [3],>6.25 µg/mL
same,MIC,E. coli NIHJ; E. coli NIHJ,≦0.003 μg/mL
same,MIC,S. epidermidis 56500; S. epidermidis 56500,0.2 µg/mL
same,MIC,S. flexneri 2A 5503,0.006 µg/mL
same,MIC,S. pyogenes G-36; S. pyogenes G-36,1.56 µg/mL
same,MIC,K. pneumoniae TYPE I; K. pneumoniae TYPE I,0.025 µg/mL
same,MIC,P. Vulgalis 08601; P. Vulgalis 08601,≦0.003 μg/mL
same,MIC,E. faevcalis ATCC 19433; E. faevcalis ATCC 19433,0.78 µg/mL
same,MIC,P. aeruginosa 32104; P. aeruginosa 32104,0.05 µg/mL
"CN[C@@H]1CN(c2c(F)cc3c(=O)c(C(=O)O)cn([C@@H]4C[C@@H]4F)c3c2C)C[C@@H]1C(C)C [Compound No. 17, 6-Fluoro-1-[(1R,2S)-2-fluorocyclopropyl]-7-[(3S,4S)-3-isopropyl-4-methylaminopyrrolidin-1-yl]-8-methyl-1,4-dihydro-4-oxoquinoline-3-carboxylic acid]",melting point,,168 to 171 °C
"CCC[C@H]1CN(c2c(F)cc3c(=O)c(C(=O)O)cn([C@@H]4C[C@@H]4F)c3c2C)C[C@H]1N (as salt: hydrochloride) [Compound No. 5, 7-[(3S,4S)-3-Amino-4-propylpyrrolidin-1-yl]-6-fluoro-1-[(1R,2S)-2-fluorocyclopropyl]-8-methyl-1,4-dihydro-4-oxoquinoline-3-carboxylic acid-hydrochloride]",melting point,,197 to 207 °C
"CC[C@H]1CN(c2c(F)cc3c(=O)c(C(=O)O)cn([C@@H]4C[C@@H]4F)c3c2C)C[C@H]1NC [Compound No. 15, 7-[(3S,4S)-3-Ethyl-4-methylaminopyrrolidin-1-yl]-6-fluoro-1-[(1R,2S)-2-fluorocyclopropyl]-8-methyl-1,4-dihydro-4-oxoquinoline-3-carboxylic acid]",melting point,,223 to 225 °C
"CC[C@H]1CN(c2ccc3c(=O)c(C(=O)O)cn([C@@H]4C[C@@H]4F)c3c2C)C[C@H]1N [Compound No. 14, 7-[(3S,4S)-3-Amino-4-ethylpyrrolidine-1-yl]-1-[(1R,2S)-2-fluorocyclopropyl]-8-methyl-1,4-dihydro-4-oxoquinoline-3-carboxylic acid]",melting point,,232 to 234 °C
"C[C@H]1COc2c(N3C[C@@H](N)[C@@H](C4CC4)C3)c(F)cc3c(=O)c(C(=O)O)cn1c23 [Compound No. 9, (3S)-10-[(3S,4S)-3-Amino-4-cyclopropylpyrrolidin-1-yl]-9-fluoro-2,3-dihydro-3-methyl-7-oxo-7H-pyrido[1,2,3-de][1,4]benzoxazine-6-carboxylic acid]",melting point,,218 to 220 °C
"C=C[C@H]1CN(c2c(F)cc3c(=O)c(C(=O)O)cn4c3c2OC[C@@H]4C)C[C@H]1N [Compound No. 7, (3S)-10-[(3S,4S)-3-Amino-4-vinyl-1-pyrrolidinyl]-9-fluoro-2,3-dihydro-3-methyl-7-oxo-7H-pyrido[1,2,3-de][1,4]benzoxazine-6-carboxylic acid]",melting point,,238 to 240 °C
CCC[C@H]1CN(c2c(F)cc3c(=O)c(C(=O)O)cn4c3c2OC[C@@H]4C)C[C@H]1N (as salt: hydrochloride),melting point,,225 to 231 °C
"CC[C@H]1CN(c2c(F)c(N)c3c(=O)c(C(=O)O)cn(C4CC4)c3c2C)C[C@H]1N [Comparative Compound E, 5-amino-7-[(3S,4S)-3-amino-4-ethyl-1-pyrrolidinyl]-1-cyclopropyl-6-fluoro-1,4-dihydro-8-methyl-4-oxoquinoline-3-carboxylic acid, reference compound]",Percentile induction of structural aberration (TA %),"[1]; 1 μg/mL, CHL/IU cells",0%
same,Percentile induction of structural aberration (TA %),"[1]; 3 μg/mL, CHL/IU cells",3%
same,Percentile induction of structural aberration (TA %),"[1]; 10 μg/mL, CHL/IU cells",1%
same,Percentile induction of structural aberration (TA %),"[1]; 30 μg/mL, CHL/IU cells",6%
same,Percentile induction of structural aberration (TA %),"[1]; 50 μg/mL, CHL/IU cells",TOX*^1
same,Percentile induction of structural aberration (TA %),"[1]; 100 μg/mL, CHL/IU cells",TOX*^1
same,Concentration at which C-mitosis and ski-pair-like chromosomes are observed considerably,[1]; CHL/IU cells,≥ 50 µg/mL
same,Significant increase in number of the cells exhibiting chromosomal aberration,[1]; at a concentration of up to 30 μg/mL,not observed
"CCC[C@H]1CN(c2c(F)cc3c(=O)c(C(=O)O)cn([C@@H]4C[C@@H]4F)c3c2C)C[C@H]1N [Compound No. 5, 7-[(3S,4S)-3-Amino-4-propylpyrrolidin-1-yl]-6-fluoro-1-[(1R,2S)-2-fluorocyclopropyl]-8-methyl-1,4-dihydro-4-oxoquinoline-3-carboxylic acid-hydrochloride]",MIC,"S. marcescens 10100; Serratia marcescens, 10100",0.05 µg/mL
same,MIC,"P. aeruginosa 32121; Pseudomonas aeruginosa, 32121",0.1 µg/mL
same,MIC,"S. aureus FDA 209P; Staphylococcus aureus, FDA209P",0.006 µg/mL
same,MIC,"S. pneumoniae J24; Streptococcus pneumoniae, J24",0.025 µg/mL
same,MIC,"S. maltophilia IID 1275; Stenotrophomonas maltophilia, IID1275",0.05 µg/mL
same,MIC,"S. aureus 870307; Staphylococcus aureus, 870307",0.2 µg/mL
same,MIC,E. coli NIHJ; Escherichia coli,0.006 µg/mL
same,MIC,"S. epidermidis 56500; Staphylococcus epidermidis, 56500",0.025 µg/mL
same,MIC,"S. flexneri 2A 5503; Shigella flexneri, 2A5503, read-out: MIC",0.006 µg/mL
same,MIC,"S. pyogenes G-36; Streptococcus pyogenes, G36",0.025 µg/mL
same,MIC,K. pneumoniae TYPE I; Klebsiella pneumoniae,0.025 µg/mL
same,MIC,P. Vulgalis 08601,0.012 µg/mL
same,MIC,E. faevcalis ATCC 19433,0.1 µg/mL
same,MIC,"P. aeruginosa 32104; Pseudomonas aeruginosa, 32104",0.2 µg/mL
"CC[C@H]1CN(c2c(F)cc3c(=O)c(C(=O)O)cn([C@@H]4C[C@@H]4F)c3c2OC)C[C@H]1NC [Compound No. 12, 7-[(3S,4S)-3-Ethyl-4-methylaminopyrrolidin-1-yl]-6-fluoro-1-[(1R,2S)-2-fluorocyclopropyl]-8-methoxy-1,4-dihydro-4-oxoquinoline-3-carboxylic acid]",melting point,,143 to 145 °C

# — patent publication US7977327B2, “Substituted pyrrolidine derivative” (Daiichi Sankyo Company, Limited, priority 2004, dated 2011)
